Experimental data published in US9446026B2, “Ocular formulations for drug-delivery to the posterior segment of the eye” (PanOptica, Inc., priority 2013, dated 2016).

Columns and labels:
[1] = pKa (water) of Compound-I drug substance; assay type: physicochemical
Excerpt: (§1) The embodiments provide three formulations of Compound-I or its free base—the Formula II compound.

[2] = Solubility of Compound-I drug substance; assay type: physicochemical
Excerpt: as §1

[3] = molecular target: recombinant FGFR-2 tyrosine kinase (Homo sapiens (Human), UniProt P21802); assay: Inhibition of recombinant FGFR-2 tyrosine kinase using exogenous substrate; assay type: biochemical
FGFR-2 = FGFR-2 (Homo sapiens (Human), UniProt P21802); assay: In vitro inhibition of tyrosine kinases; assay type: biochemical
FGFR-4 = FGFR-4 (Homo sapiens (Human), UniProt P22455); assay: In vitro inhibition of tyrosine kinases; assay type: biochemical
KDR (VEGFR-2) = KDR (VEGFR-2) (Homo sapiens (Human), UniProt P35968); assay: In vitro inhibition of tyrosine kinases; assay type: biochemical; conditions: 300 nM (170.67 ng/mL)
[4] = PK with topical ocular Compound-I in sodium phosphate-based Gel Drop; assay type: in vivo; conditions: Dutch-belted rabbits
Excerpt: The Gel Drop of Compound-I was applied to eyes of Dutch-belted rabbits.
The Gel Drop formulations (listed in Table 6) differed in several aspects, such as API concentration, sodium phosphate concentration, presence or absence of tonicity (glycerin) or preservative (benzalkoniumchloride/BAK) agents, solubilizing surfactants (polysorbate 80, tyloxapol, and/or poloxamer), and pH.

[5] = 5-day PK with topical ocular Compound-I in cyclodextrin-based solutions (Example 6); assay type: in vivo; conditions: HPβCD solutions, Dutch-Belted rabbits, q.d.; 24 hr after first daily dose on day 4 (Groups 5b, 6b); LLOQ 0.0218 μM
Description: All doses were administered with ±1 hour of the scheduled dose time, except on day 1 for Groups 1, 4, and 10. The first dose on day 1 was administered at 12:00 PM, and the second dose (for Groups 1 and 10) was administered approximately 4 hours after. This was due to delayed arrival of formulations. All other dosing for these groups was as scheduled. On day 1, Groups 4-8, and 11-12 received one dose (q.d.) for four (4) days. On days 1 through 4, Groups 1-3, and 9-10 received b.i.d. dosing approximately 8 hours apart for four (4) days.
Ocular sampling occurred one hour following the first daily dose on day 5 for all groups, except Groups 5b and 6b, where ocular sampling occurred 24 hours after the first daily dose on day 4.
Blood samples for plasma collection were obtained just prior to scheduled euthanasia for all animals. […] Cornea, central retina, and central choroid samples from groups 1-12 were assayed. Aqueous humor, peripheral retina, and peripheral choroid samples were not assayed.

[6] = Ocular fluid and tissue concentrations, 0.4% Compound-I cyclodextrin solutions (Example 7, 24-day study); assay type: in vivo, Dutch-Belted rabbits; conditions: Dutch-Belted, rabbit, topical
Description: The ocular solution of Compound-I comprising cyclodextrin was prepared and tested in different groups of animals.

[7] = Ocular tissue concentrations, 0.3% Compound-I Tris-based suspension twice daily 30 days; assay type: in vivo, Dutch-Belted rabbits; conditions: Dutch-Belted, rabbit, topical
[8] = Ocular toxicology: clinical ophthalmic and microscopic examinations; assay type: in vivo, Dutch-Belted rabbits
Excerpt: Retinal function was normal in all test article and vehicle treated groups during full-field electroretinograms performed in rabbits.

[9] = design: species or system Dutch-belted rabbits; conditions: rabbit, in vivo
[10] = Solubility of Compound-I in cyclodextrin ophthalmic solution; assay type: physicochemical; conditions: HP-β-CD at ≥1:6 molar ratio or SBE-β-CD at ≥1:2 ratio
pathologic angiogenesis = assay: Systemic administration in murine cornea and rat growth plate models; assay type: in vivo
human tumor xenographs = assay: Human tumor xenographs in athymic mice; assay type: in vivo; conditions: systemic administration
[11] = 1- to 5-day PK with topical ocular Compound-I formulations (Example 5); conditions: Dutch Belted, rabbit, aqueous humor, Average Concentration of Compound-I, Dutch Belted rabbits, topical ocular q.d. or b.i.d., 24 hr post-dose, Group per row, LLOQ 0.000903 μM
Description: All doses were administered within ±1 hour of the scheduled dose time. On day 1, Groups 1, 2, 4-6, 8, 10, 11, 13, 15, and 17 received one dose (q.d.) for either one (1) or four (4) days. […] Animals in Groups 18 and 19 received b.i.d dosing of vehicle only formulations for five (5) consecutive days.
Ocular sampling occurred for Group 1 at 0.5, 1, 2, 4, 8, or 24 hours post-dose relative to the day 1 dose. Ocular sampling occurred for Groups 2 and 6 at 1, 8, and 24 hours post-dose relative to the day 5 morning dose. Ocular sampling for Groups 3, 7, 8, 11, and 13 occurred at 1 and 24 hours post-dose relative to the day 5 morning dose. Ocular sampling for Groups 4, 9, 10, 12, 14, 15, 16, and 17 occurred at 1 hour post-dose relative to the day 5 morning dose. Group 5 ocular sampling occurred at 0.5, 1, 2, 4, 8, and 24 hours post-dose relative to the day 1 dose. Animals in Groups 18 and 19 were followed only by clinical observations for five (5) days.
Aqueous humor, cornea, central and peripheral retina, and central and peripheral choroid samples were collected. Aqueous humor, cornea, central retina, and central choroid samples were then assayed. Peripheral retina and peripheral choroid samples were assayed only for Groups 1-8, 12, 14, and 16 per study protocol.
Rabbit aqueous humor, cornea, central and peripheral retina, and central and peripheral choroid samples were analyzed.

[12] = 10-point titration curve (257 nM-5000 nM)

Chain of recombinant FGFR-2 tyrosine kinase (P21802 22-821): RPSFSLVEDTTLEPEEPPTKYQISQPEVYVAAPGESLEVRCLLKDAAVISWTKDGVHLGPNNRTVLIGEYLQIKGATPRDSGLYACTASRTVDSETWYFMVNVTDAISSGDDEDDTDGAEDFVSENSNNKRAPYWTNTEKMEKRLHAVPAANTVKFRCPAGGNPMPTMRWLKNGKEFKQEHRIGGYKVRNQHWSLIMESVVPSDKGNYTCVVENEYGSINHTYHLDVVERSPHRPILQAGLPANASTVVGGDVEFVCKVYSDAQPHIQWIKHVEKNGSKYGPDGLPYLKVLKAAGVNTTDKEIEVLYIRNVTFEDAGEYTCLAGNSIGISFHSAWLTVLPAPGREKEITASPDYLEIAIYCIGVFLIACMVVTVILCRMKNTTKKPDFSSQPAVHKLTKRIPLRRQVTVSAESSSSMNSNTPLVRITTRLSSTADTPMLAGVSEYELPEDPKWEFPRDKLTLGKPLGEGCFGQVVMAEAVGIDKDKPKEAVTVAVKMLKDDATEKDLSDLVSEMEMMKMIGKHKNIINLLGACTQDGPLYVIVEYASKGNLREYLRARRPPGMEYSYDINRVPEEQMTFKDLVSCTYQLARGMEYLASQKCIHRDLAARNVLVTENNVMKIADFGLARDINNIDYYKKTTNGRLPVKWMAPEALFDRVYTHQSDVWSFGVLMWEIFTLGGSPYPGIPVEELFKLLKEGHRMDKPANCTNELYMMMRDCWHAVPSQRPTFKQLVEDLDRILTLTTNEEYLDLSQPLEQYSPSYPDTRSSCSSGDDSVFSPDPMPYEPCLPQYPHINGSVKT
Chain of FGFR-2 (P21802 22-821): as above
Chain of FGFR-4 (P22455 22-802): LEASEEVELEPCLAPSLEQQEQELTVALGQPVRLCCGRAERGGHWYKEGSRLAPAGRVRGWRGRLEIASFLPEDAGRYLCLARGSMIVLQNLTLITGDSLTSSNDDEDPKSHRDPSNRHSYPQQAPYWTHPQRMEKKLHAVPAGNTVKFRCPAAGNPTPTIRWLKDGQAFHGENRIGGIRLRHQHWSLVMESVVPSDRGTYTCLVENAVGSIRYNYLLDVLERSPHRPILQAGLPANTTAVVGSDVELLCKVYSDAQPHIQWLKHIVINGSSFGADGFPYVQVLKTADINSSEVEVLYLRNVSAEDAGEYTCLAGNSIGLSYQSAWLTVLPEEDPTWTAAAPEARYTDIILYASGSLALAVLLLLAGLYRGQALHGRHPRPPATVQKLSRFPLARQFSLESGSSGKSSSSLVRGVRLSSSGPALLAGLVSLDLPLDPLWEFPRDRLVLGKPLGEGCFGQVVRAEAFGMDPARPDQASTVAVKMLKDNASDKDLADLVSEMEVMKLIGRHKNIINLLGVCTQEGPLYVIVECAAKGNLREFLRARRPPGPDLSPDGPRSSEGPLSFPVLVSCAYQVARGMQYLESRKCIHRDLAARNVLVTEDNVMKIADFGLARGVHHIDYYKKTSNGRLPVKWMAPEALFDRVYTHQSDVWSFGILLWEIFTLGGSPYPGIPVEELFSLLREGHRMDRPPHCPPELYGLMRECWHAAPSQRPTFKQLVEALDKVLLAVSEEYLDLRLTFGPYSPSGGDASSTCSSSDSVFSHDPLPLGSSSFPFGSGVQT
Chain of KDR (VEGFR-2) (P35968 20-1356): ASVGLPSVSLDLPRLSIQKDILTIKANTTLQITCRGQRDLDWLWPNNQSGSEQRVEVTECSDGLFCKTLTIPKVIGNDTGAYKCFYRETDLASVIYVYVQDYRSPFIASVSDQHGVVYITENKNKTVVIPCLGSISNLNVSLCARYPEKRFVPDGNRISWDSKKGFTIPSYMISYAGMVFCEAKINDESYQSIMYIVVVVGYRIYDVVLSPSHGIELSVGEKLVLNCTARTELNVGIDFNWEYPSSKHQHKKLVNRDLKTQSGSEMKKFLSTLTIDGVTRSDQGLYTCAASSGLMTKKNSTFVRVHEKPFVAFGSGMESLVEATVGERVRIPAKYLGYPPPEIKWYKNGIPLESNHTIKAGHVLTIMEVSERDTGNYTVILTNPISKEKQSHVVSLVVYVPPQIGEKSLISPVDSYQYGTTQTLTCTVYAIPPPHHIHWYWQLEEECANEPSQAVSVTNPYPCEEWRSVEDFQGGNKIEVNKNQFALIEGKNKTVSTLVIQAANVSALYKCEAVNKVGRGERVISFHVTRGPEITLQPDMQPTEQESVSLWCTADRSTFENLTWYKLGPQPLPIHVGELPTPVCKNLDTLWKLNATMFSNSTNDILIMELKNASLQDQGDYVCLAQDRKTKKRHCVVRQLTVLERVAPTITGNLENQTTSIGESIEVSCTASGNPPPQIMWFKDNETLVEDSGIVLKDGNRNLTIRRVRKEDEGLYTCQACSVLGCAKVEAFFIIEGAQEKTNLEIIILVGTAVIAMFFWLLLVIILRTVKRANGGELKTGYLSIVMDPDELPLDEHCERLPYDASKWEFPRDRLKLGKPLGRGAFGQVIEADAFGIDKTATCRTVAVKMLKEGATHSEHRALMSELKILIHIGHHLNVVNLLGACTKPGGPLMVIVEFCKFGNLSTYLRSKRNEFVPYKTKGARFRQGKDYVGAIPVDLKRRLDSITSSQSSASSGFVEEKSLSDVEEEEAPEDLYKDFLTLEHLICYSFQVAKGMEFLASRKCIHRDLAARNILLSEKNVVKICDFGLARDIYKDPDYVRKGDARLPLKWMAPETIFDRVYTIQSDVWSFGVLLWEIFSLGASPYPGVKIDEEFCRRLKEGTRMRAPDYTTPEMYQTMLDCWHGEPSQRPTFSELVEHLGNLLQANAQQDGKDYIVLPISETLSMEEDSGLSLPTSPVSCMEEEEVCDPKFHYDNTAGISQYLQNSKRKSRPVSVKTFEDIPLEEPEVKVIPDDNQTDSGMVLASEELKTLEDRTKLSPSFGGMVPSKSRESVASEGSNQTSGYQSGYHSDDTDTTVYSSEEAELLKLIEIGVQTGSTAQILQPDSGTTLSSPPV

Structure (SMILES): Cl.NC(=O)c1c(OCc2c(F)cc(Br)cc2F)nsc1NC(=O)NCCCCN1CCCC1 [Compound-I, 3-[(4-bromo-2,6-difluorophenyl)methoxy]-5-[[[[4-(1-pyrrolidinyl)butyl]amino]carbonyl]amino]-4-isothiazolecarboxamide hydrochloride]
- pKa [1]: 10.5
- solubility ([2]; 0.1N HCl, simulated gastric fluid): 40 µg/mL
- solubility ([2]; 0.1N NaOH, aqueous buffer): 50 µg/mL
- solubility ([2]; acetonitrile, organic solvent or mixture): 40 µg/mL
- solubility ([2]; aqueous buffer, pH 7.5 (0.05M NaH2PO4)): 1000 µg/mL
- solubility ([2]; aqueous buffer, pH 9.0 (0.05m Na2HPO4)): 700 µg/mL
- solubility ([2]; deionized water, water): 500 to 1200 µg/mL
- solubility ([2]; ethanol, organic solvent or mixture): 700 µg/mL
- solubility ([2]; hexanes, organic solvent or mixture): < 10 µg/mL
- solubility ([2]; methanol, organic solvent or mixture): 4300 µg/mL
- solubility ([2]; tetrahydrofuran, organic solvent or mixture): 20 µg/mL
- IC50 [3]: 8.79 nM
- IC50, recombinant FGFR-2 tyrosine kinase ([3]; hydrochloride): 5 ng/mL and (5) ng/mL
- IC50 (FGFR-2; [12]): 3.08 nM
- IC50, FGFR-2 (FGFR-2; 10-point titration curve, hydrochloride): 1.75 ng/mL and (1.75) ng/mL
- IC50, FGFR-4 (FGFR-4; 10-point titration curve): (284.45) ng/mL
- IC50 (FGFR-4; [12]): 500 nM
- Mean % Inhibition at 300 nM Compound-I, KDR (VEGFR-2) (KDR (VEGFR-2)): completely inhibited
- Delivery of Compound-I to posterior segment tissues [4]: dose-dependent and dose-frequency dependent
- Average Concentration, Central Retina [5]: <LLOQ
- concentration at 1 h ([6]; aqueous humor, 0.4 % (4 mg/mL), 30 μL/eye, Average concentration of Compound-I, Aqueous Humor, Group 8: 0.4% Compound-I in 8.41% KLEPTOSE HPB, 0.142% phosphate, 30 μL/eye, 2 doses per day): 6.56 nM
- concentration at 1 h ([6]; aqueous humor, 0.4 % (4 mg/mL), 30 μL/eye, Average concentration of Compound-I, Aqueous Humor, Group 9: 0.4% Compound-I in […] KLEPTOSE HPB, 0.142% phosphate, 30 μL/eye, 2 doses per day): 3.13 nM
- concentration at 1 h ([6]; aqueous humor, 0.4 % (4 mg/mL), 30 μL/eye, Average concentration of Compound-I, Aqueous Humor, Group 10: 0.4% Compound-I in 4.88% CAPTISOL, 0.142% phosphate, 30 μL/eye, 2 doses per day): 1.84 nM
- concentration at 1 h ([6]; aqueous humor, 0.4 % (4 mg/mL), 30 μL/eye, Average concentration of Compound-I, Aqueous Humor, Group 11: 0.4% Compound-I in 4.88% CAPTISOL, […] phosphate, 30 μL/eye, 2 doses per day): 4.03 nM
- concentration at 1 h ([6]; aqueous humor, 0.4 %, Aqueous humor concentration of Compound-I (range over groups), 0.4% Compound-I cyclodextrin solutions (KLEPTOSE or CAPTISOL), twice daily): 3.13 to 6.56 nM
- concentration at 1 h ([6]; central choroid, 0.4 %): 259 to 769 nM
- concentration at 1 h ([6]; central choroid, 0.4 % (4 mg/mL), 0.4% Ophthalmic Solution (CAPTISOL), Twice Daily 24 days, read-out: Central Choroid [Compound I]): 212 nM
- concentration at 1 h ([6]; central choroid, 0.4 % (4 mg/mL), 0.4% Ophthalmic Solution (KLEPTOSE HP), Twice Daily 24 days, read-out: Central Choroid [Compound I]): 259 nM
- concentration at 1 h ([6]; central choroid, 0.4 % (4 mg/mL), 0.4% Ophthalmic Solution (KLEPTOSE HPB), Twice Daily 24 days, read-out: Central Choroid [Compound I]): 769 nM
- concentration at 1 h ([6]; central choroid, 0.4 % (4 mg/mL), 30 μL/eye, Average concentration of Compound-I, Central Choroid, Group 8: 0.4% Compound-I in 8.41% KLEPTOSE HPB, 0.142% phosphate, 30 μL/eye, 2 doses per day): 769 nM
- concentration at 1 h ([6]; central choroid, 0.4 % (4 mg/mL), 30 μL/eye, Average concentration of Compound-I, Central Choroid, Group 9: 0.4% Compound-I in […] KLEPTOSE HPB, 0.142% phosphate, 30 μL/eye, 2 doses per day): 259 nM
- concentration at 1 h ([6]; central choroid, 0.4 % (4 mg/mL), 30 μL/eye, Average concentration of Compound-I, Central Choroid, Group 10: 0.4% Compound-I in 4.88% CAPTISOL, 0.142% phosphate, 30 μL/eye, 2 doses per day): 212 nM
- concentration at 1 h ([6]; central choroid, 0.4 % (4 mg/mL), 30 μL/eye, Average concentration of Compound-I, Central Choroid, Group 11: 0.4% Compound-I in 4.88% CAPTISOL, […] phosphate, 30 μL/eye, 2 doses per day): 345 nM
- concentration at 1 h ([6]; central retina, 0.4 % (4 mg/mL), 30 μL/eye, Average concentration of Compound-I, Central Retina, Group 8: 0.4% Compound-I in 8.41% KLEPTOSE HPB, 0.142% phosphate, 30 μL/eye, 2 doses per day): 124 nM
- concentration at 1 h ([6]; central retina, 0.4 % (4 mg/mL), 30 μL/eye, Average concentration of Compound-I, Central Retina, Group 9: 0.4% Compound-I in […] KLEPTOSE HPB, 0.142% phosphate, 30 μL/eye, 2 doses per day): 74.1 nM
- concentration at 1 h ([6]; central retina, 0.4 % (4 mg/mL), 30 μL/eye, Average concentration of Compound-I, Central Retina, Group 10: 0.4% Compound-I in 4.88% CAPTISOL, 0.142% phosphate, 30 μL/eye, 2 doses per day): 53.1 nM
- concentration at 1 h ([6]; central retina, 0.4 % (4 mg/mL), 30 μL/eye, Average concentration of Compound-I, Central Retina, Group 11: 0.4% Compound-I in 4.88% CAPTISOL, […] phosphate, 30 μL/eye, 2 doses per day): 101 nM
- concentration at 1 h ([6]; central retina, 0.4 %, Central retina concentration of Compound-I (range over groups), 0.4% Compound-I cyclodextrin solutions (KLEPTOSE or CAPTISOL), twice daily): 53.1 to 124 nM
- concentration at 1 h ([6]; cornea, 0.4 %): 6490 to 30000 nM
- concentration at 1 h ([6]; cornea, 0.4 % (4 mg/mL), 0.4% Ophthalmic Solution (CAPTISOL), Twice Daily 24 days, read-out: Cornea [Compound I]): 6490 nM
- concentration at 1 h ([6]; cornea, 0.4 % (4 mg/mL), 0.4% Ophthalmic Solution (KLEPTOSE HP), Twice Daily 24 days, read-out: Cornea [Compound I]): 8050 nM
- concentration at 1 h ([6]; cornea, 0.4 % (4 mg/mL), 0.4% Ophthalmic Solution (KLEPTOSE HPB), Twice Daily 24 days, read-out: Cornea [Compound I]): 12300 nM
- concentration at 1 h ([6]; cornea, 0.4 % (4 mg/mL), 30 μL/eye, Average concentration of Compound-I, Cornea, Group 8: 0.4% Compound-I in 8.41% KLEPTOSE HPB, 0.142% phosphate, 30 μL/eye, 2 doses per day): 12300 nM
- concentration at 1 h ([6]; cornea, 0.4 % (4 mg/mL), 30 μL/eye, Average concentration of Compound-I, Cornea, Group 9: 0.4% Compound-I in […] KLEPTOSE HPB, 0.142% phosphate, 30 μL/eye, 2 doses per day): 8050 nM
- concentration at 1 h ([6]; cornea, 0.4 % (4 mg/mL), 30 μL/eye, Average concentration of Compound-I, Cornea, Group 10: 0.4% Compound-I in 4.88% CAPTISOL, 0.142% phosphate, 30 μL/eye, 2 doses per day): 6490 nM
- concentration at 1 h ([6]; cornea, 0.4 % (4 mg/mL), 30 μL/eye, Average concentration of Compound-I, Cornea, Group 11: 0.4% Compound-I in 4.88% CAPTISOL, […] phosphate, 30 μL/eye, 2 doses per day): 30000 nM
- concentration at 1 h ([7]; aqueous humor, 0.3% Tris-based suspensions with and without benzylalkonium chloride, twice daily, 1 hour after first daily dose on day 30, read-out: Mean ocular tissue concentration, aqueous humor): 1.27 to 1.45 nM
- concentration at 1 h ([7]; central choroid, 0.3 % w/v, 0.3% Tris Suspension, Twice Daily 30 days, read-out: Central Choroid [Compound I]): 319 nM
- concentration at 1 h ([7]; central choroid, 0.3% Tris-based suspensions with and without benzylalkonium chloride, twice daily, 1 hour after first daily dose on day 30, read-out: Mean ocular tissue concentration, central choroid): 303 to 319 nM
- concentration at 1 h ([7]; central retina, 0.3% Tris-based suspensions with and without benzylalkonium chloride, twice daily, 1 hour after first daily dose on day 30, read-out: Mean ocular tissue concentration, central retina): 49.5 to 59.2 nM
- concentration at 1 h ([7]; cornea, 0.3 % w/v, 0.3% Tris Suspension, Twice Daily 30 days, read-out: Cornea [Compound I]): 2690 nM
- concentration at 1 h ([7]; cornea, 0.3% Tris-based suspensions with and without benzylalkonium chloride, twice daily, 1 hour after first daily dose on day 30, read-out: Mean ocular tissue concentration, cornea): 2690 to 3100 nM
- concentration at 1 h ([7]; peripheral choroid, 0.3% Tris-based suspensions with and without benzylalkonium chloride, twice daily, 1 hour after first daily dose on day 30, read-out: Mean ocular tissue concentration, peripheral choroid): 781 to 1210 nM
- concentration at 1 h ([7]; peripheral retina, 0.3% Tris-based suspensions with and without benzylalkonium chloride, twice daily, 1 hour after first daily dose on day 30, read-out: Mean ocular tissue concentration, peripheral retina): 81.9 to 86.8 nM
- Microscopic evaluation of eyes, Tris-based suspension ([8]; 0.3% w/v twice daily for 30 days): considered normal
- Findings attributed to test-article after 30 days of 0.6% cyclodextrin-based solution ([8]; Dutch-belted rabbits, topical ocular): no untoward findings
- Tolerability of HP-β-CD cyclodextrin-based solutions, 30 days ([8]; rabbit, in vivo): well tolerated
- Tolerability of Tris-based suspension formulations ([8]; rabbit, in vivo): well tolerated
- Tolerability of cyclodextrin-based solutions, 24 days ([8]; rabbit, in vivo): well-tolerated
- Retinal function, full-field electroretinograms ([8]; rabbits, all test article treated groups): normal
- Reduction of corneal exposure with suspension-based and cyclodextrin formulations ([9]; Dutch-belted): 10-100 ×
- Corneal concentrations with Gel Drop compared to Tris-based suspensions [9]: fifty-fold to hundred-fold higher
- Corneal concentrations with Gel Drop compared to cyclodextrin based solution [9]: five-fold to fifteen-fold higher
- Compound-I dose strengths solubilised by cyclodextrin [10]: 0.1-1.0%
- Inhibition of pathologic angiogenesis (pathologic angiogenesis): shown to inhibit
- Inhibition of growth of human tumor xenographs (human tumor xenographs): shown to inhibit
- concentration at 24 h [11]: 5.18 nM
